According to PubChem BioAssay (NCI):
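Protocol summary: plate cells (96-well), add compound at 5 concentrations, incubate 48 h, interpolate endpoints linearly. Here, GI50 denotes the concentration required for 50% inhibition of growth. Definition used: TGI = concentration required for complete inhibition of growth.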

Tests used:
Assay in all cases: NCI-60 cell line screen, 48 h
[1] = system: OVCAR-5 ovarian
[2] = system: TK-10 renal
[3] = system: SK-MEL-28 melanoma
[4] = system: SF-268 CNS
[5] = system: SNB-19 CNS
[6] = system: CCRF-CEM leukemia
[7] = system: EKVX NSCLC
[8] = system: OVCAR-8 ovarian
[9] = system: SN12C renal
[10] = system: MALME-3M melanoma

Row | SMILES | GI50 [1] [µM] | TGI [1] [µM] | GI50 [2] [µM] | TGI [2] [µM] | GI50 [3] [µM] | TGI [3] [µM] | GI50 [4] [µM] | TGI [4] [µM] | GI50 [5] [µM] | TGI [5] [µM] | GI50 [6] [µM] | TGI [6] [µM] | GI50 [7] [µM] | TGI [7] [µM] | GI50 [8] [µM] | TGI [8] [µM] | GI50 [9] [µM] | TGI [9] [µM] | GI50 [10] [µM] | TGI [10] [µM]
1 | Cn1cc(-c2nonc2-c2cn(C)c3ccc(Br)cc23)c2ccccc21 | 7.05 | > 100 | 5.33 | > 100 | > 100 | > 100 | 5.79 | > 100 | 5.33 | > 100 | 3.37 | > 100 | 3.82 | > 100 | 5.14 | > 100 | 5.25 | > 100 | 4.86 | > 100
2 | CC1=C(C(=O)Nc2cc(F)c(F)cc2F)C(c2cccc([N+](=O)[O-])c2)C(C(=O)Nc2ccccc2C(F)(F)F)=C(C)N1 (stereo not given) |  | 62.1 |  | 71.5 |  | 62.2 |  | 54.6 |  | > 100 |  | 55.1 |  | 77.1 |  | 77.7 |  | 56.5 |  | 77.8
3 | Cc1ccc(C)c(NC(=O)CCC(=O)CC(=O)C(C)(C)C)c1 |  | > 100 |  | > 100 |  | > 100 |  | > 100 |  | > 100 |  | > 100 |  | > 100 |  | > 100 |  | > 100 |  | > 100
